Consider nine compounds from patent US8198273B2, “Compounds and methods for kinase modulation, and indications therefor” (Plexxikon Inc., priority 2009, dated 2012).

One data set has as its target CYP2C19 (Homo sapiens, UniProt P33261). In words: CYP2C19 inhibition (fluorescent substrate). It counts as in vitro ADME. The note with it: CYP2C19, CEC substrate; read-out: Cyp IC50 2C19. In a few lines:
(§1)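 10-pt 1:1 serial dilution in co-factor mix (DMSO stock 100 mM); 10 min preincubation, 37 °C; reaction at 37 °C. Readout: fluorescent metabolite of probe substrate. IC50 from signal vs [compound].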

Data set [1] can be described thus: Relative solubility by turbidity in aqueous buffers of varying pH. The class given is physicochemical. The note with it: for turbidity threshold (L, M, H) 7.4: HEPES pH 7.4; for turbidity threshold (L, M, H) 4.5: SIF pH 4.5; for turbidity threshold (L, M, H) 6.8: SIF pH 6.8; for turbidity threshold (L, M, H) 1.4: buffer pH 1.4 (SGF). Put shortly: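 Turbidity endpoint: concentration where optical density at 490, 535 and 650 nm exceeds 0.01, three-wavelength average used. Buffers at pH 1.5, 4.5, 6.8 and 7.4; DMSO serial dilutions of 25 mM stock spiked 1 μL into 99 μL buffer. Low <31.3, moderate 31.3–250, high >250 μM.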

A further data set deals with T1, A-Raf (Homo sapiens, UniProt P10398).
T1 sequence (P10398 1-606): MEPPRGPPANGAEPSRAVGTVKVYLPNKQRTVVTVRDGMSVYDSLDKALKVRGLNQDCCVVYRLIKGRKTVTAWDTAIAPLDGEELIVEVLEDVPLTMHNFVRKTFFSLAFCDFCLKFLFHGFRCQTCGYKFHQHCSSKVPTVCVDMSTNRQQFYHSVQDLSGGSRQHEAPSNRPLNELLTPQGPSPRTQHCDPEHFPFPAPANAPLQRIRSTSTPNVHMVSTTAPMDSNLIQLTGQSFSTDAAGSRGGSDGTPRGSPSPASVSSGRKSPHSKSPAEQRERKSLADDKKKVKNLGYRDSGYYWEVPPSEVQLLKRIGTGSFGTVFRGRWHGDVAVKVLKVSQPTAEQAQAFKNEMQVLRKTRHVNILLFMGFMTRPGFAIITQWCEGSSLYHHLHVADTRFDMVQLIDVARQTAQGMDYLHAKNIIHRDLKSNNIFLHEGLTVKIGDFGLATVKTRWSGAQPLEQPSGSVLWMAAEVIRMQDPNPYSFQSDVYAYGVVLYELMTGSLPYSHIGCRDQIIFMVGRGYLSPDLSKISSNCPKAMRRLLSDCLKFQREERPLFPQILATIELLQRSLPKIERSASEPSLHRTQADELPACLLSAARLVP
In words: A-Raf biochemical kinase inhibition (AlphaScreen, biotin-MEK1 substrate). The note with it: 100 μM ATP. Here is the method:
Compounds to be tested are diluted in dimethyl sulfoxide to a concentration of 0.1 mM. These are serially diluted 15 μL into 30 μL of dimethyl sulfoxide seven times in 96 well plates for a total of 8 dilution points, and for each dilution point 1 μL is added to a well of an assay plate. […] The reaction is started with addition of 10 μL of 200 μM ATP (i.e. final 100 μM ATP). […] The plates are incubated for 3 hours at room temperature and read on Envision reader (Perkin Elmer). […] The signal vs. compound concentration is used to determine the IC50.

In a further data set the target is CYP2C9 (Homo sapiens, UniProt P11712). In words: CYP2C9 inhibition (fluorescent substrate). The note with it: CYP2C9, MFC substrate; read-out: Cyp IC50 2C9. The class given is in vitro ADME. In a few lines: as §1
For the next data set, the target named is B-Raf V600E (Homo sapiens, UniProt P15056, V600E). Nature of the data set: B-Raf V600E biochemical kinase inhibition (AlphaScreen, biotin-MEK1 substrate). The note with it: 100 μM ATP. In a few lines:
(§2)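 Eight-point compound series (made from a 0.1 mM DMSO stock) tested against each Raf enzyme with biotin-MEK1 substrate and 100 μM final ATP.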

The next data set addresses c-Raf-1 (Homo sapiens, UniProt P04049). Nature of the data set: c-Raf-1 biochemical kinase inhibition (AlphaScreen, biotin-MEK1 substrate). The note with it: 100 μM ATP. Put shortly: as §2

SMILES strings stand for the structures. pIC50: −log10 of the molar value.

CYP2C19, sequence (P33261 whole entry): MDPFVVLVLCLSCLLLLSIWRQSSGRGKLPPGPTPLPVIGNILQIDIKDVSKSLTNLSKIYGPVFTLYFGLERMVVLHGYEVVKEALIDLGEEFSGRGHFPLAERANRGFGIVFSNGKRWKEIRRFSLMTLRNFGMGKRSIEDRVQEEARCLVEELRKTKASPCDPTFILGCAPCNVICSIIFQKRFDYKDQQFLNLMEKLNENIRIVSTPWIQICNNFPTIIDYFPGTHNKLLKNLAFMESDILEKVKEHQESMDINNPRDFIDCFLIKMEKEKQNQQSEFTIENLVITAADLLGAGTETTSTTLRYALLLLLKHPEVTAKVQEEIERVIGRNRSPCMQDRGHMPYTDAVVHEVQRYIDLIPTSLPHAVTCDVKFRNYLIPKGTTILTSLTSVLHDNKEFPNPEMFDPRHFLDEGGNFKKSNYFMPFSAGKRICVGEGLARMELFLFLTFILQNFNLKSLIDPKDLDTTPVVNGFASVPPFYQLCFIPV
c-Raf-1, sequence (P04049 whole entry): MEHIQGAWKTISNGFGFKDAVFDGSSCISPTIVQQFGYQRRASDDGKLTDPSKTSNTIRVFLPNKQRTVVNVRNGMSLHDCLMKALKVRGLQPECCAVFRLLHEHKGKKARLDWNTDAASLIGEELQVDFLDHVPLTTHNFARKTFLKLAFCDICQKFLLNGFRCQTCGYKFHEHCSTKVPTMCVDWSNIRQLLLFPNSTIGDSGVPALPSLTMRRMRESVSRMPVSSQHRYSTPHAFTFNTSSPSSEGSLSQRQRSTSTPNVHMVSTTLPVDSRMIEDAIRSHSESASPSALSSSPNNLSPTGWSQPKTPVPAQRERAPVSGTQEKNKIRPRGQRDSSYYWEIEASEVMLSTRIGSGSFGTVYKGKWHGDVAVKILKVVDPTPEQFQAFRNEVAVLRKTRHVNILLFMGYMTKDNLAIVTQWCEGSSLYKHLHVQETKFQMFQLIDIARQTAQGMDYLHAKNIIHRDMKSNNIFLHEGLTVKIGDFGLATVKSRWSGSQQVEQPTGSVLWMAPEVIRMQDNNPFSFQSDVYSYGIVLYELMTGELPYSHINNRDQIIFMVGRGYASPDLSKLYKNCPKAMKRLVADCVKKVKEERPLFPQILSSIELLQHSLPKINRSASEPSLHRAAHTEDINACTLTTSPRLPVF
CYP2C9, sequence (P11712 whole entry): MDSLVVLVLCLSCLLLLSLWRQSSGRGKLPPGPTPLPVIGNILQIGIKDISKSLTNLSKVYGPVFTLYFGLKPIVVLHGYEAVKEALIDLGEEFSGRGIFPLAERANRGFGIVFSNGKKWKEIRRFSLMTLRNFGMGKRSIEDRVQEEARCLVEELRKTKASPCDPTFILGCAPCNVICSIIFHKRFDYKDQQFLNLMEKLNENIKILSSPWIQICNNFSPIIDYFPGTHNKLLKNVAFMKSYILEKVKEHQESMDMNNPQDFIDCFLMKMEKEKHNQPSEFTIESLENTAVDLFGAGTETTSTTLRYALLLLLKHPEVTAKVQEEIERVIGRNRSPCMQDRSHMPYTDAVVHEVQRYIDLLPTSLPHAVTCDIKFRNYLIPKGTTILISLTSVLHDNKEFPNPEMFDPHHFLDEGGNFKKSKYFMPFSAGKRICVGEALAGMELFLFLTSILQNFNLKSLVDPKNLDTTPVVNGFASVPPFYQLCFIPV
B-Raf V600E, sequence (P15056 whole entry V600E): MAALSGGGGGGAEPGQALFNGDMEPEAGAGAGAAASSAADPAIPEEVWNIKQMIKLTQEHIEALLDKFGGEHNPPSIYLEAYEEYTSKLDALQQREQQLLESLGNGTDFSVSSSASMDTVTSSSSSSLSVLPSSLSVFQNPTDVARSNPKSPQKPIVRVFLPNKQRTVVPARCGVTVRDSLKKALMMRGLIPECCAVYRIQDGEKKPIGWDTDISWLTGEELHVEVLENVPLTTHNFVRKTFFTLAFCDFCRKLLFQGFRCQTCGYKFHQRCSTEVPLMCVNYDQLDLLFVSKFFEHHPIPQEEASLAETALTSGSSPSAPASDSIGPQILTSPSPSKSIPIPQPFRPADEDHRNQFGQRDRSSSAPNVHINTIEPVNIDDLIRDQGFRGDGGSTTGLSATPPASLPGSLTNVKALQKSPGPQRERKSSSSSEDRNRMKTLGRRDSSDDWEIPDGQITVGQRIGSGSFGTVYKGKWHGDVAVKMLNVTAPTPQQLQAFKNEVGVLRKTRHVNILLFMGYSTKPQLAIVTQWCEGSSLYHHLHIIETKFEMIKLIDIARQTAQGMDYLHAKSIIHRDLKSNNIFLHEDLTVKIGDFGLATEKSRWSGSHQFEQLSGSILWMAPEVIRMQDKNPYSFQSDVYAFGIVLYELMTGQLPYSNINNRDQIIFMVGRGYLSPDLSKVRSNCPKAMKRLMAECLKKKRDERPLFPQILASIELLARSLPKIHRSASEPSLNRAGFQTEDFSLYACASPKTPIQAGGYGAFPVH

`COc1cnc2[nH]cc(C(=O)c3c(F)ccc(NS(=O)(=O)c4ccccc4F)c3F)c2c1` [P-2009, N-[2,4-Difluoro-3-(5-methoxy-1H-pyrrolo[2,3-b]pyridine-3-carbonyl)-phenyl]-2-fluoro-benzenesulfonamide]: at CYP2C19, the pIC50 was below 5.00. In data set [1], the “turbidity threshold (L, M, H) 7.4” value is “M (moderate solubility if the threshold concentration is 31.3 μM to 250 μM)”; the “turbidity threshold (L, M, H) 4.5” value is recorded as “L (low solubility if the threshold concentration is <31.3 04)”; the “turbidity threshold (L, M, H) 6.8” value was “L (low solubility if the threshold concentration is <31.3 04)”; the “turbidity threshold (L, M, H) 1.4” value is listed as “L (low solubility if the threshold concentration is <31.3 04)”. The compound also showed a pIC50 against A-Raf above 8.00. Besides, the pIC50 on CYP2C9 is below 5.00. Also, at B-Raf V600E, the pIC50 is above 8.00.
For the compound `Cc1cnc2[nH]cc(C(=O)c3c(F)ccc(NS(=O)(=O)c4ccccc4F)c3F)c2c1` [P-2014, N-[2,4-Difluoro-3-(5-methyl-1H-pyrrolo[2,3-b]pyridine-3-carbonyl)-phenyl]-2-fluoro-benzenesulfonamide], the pIC50 at CYP2C19 was below 5.00. Further, in data set [1], the “turbidity threshold (L, M, H) 7.4” value was “M (moderate solubility if the threshold concentration is 31.3 μM to 250 μM)”; the “turbidity threshold (L, M, H) 4.5” value is “M (moderate solubility if the threshold concentration is 31.3 μM to 250 μM)”; the “turbidity threshold (L, M, H) 6.8” value is reported as “M (moderate solubility if the threshold concentration is 31.3 μM to 250 μM)”; the “turbidity threshold (L, M, H) 1.4” value was “L (low solubility if the threshold concentration is <31.3 04)”. Besides, the pIC50 against A-Raf was above 8.00. For the same compound, the pIC50 at CYP2C9 is below 5.00. The pIC50 on B-Raf V600E is above 8.00.
Take `Cc1cnc2[nH]cc(C(=O)c3c(F)ccc(NS(=O)(=O)c4cccc(F)c4)c3F)c2c1` [P-2016, N-[2,4-Difluoro-3-(5-methyl-1H-pyrrolo[2,3-b]pyridine-3-carbonyl)-phenyl]-3-fluoro-benzenesulfonamide]: the pIC50 was below 5.00 on CYP2C19, above 8.00 at A-Raf, above 5.30 on CYP2C9 and above 8.00 against B-Raf V600E. Besides, the “turbidity threshold (L, M, H) 7.4” value in data set [1] was “M (moderate solubility if the threshold concentration is 31.3 μM to 250 μM)”. Moreover, the “turbidity threshold (L, M, H) 4.5” value in data set [1] is reported as “L (low solubility if the threshold concentration is <31.3 04)”. Moreover, the “turbidity threshold (L, M, H) 6.8” value in data set [1] was “M (moderate solubility if the threshold concentration is 31.3 μM to 250 μM)”. Moreover, the “turbidity threshold (L, M, H) 1.4” value in data set [1] was “H (high solubility if the threshold concentration is >250 μM)”.
On to `O=C(c1c(F)ccc(NS(=O)(=O)c2ccccc2F)c1F)c1c[nH]c2nccc(Cl)c12` [P-2017, N-[3-(4-Chloro-1H-pyrrolo[2,3-b]pyridine-3-carbonyl)-2,4-difluoro-phenyl]-2-fluoro-benzenesulfonamide], for which the pIC50 on CYP2C19 is below 5.00; against A-Raf, above 8.00; on CYP2C9, below 5.00; on B-Raf V600E, above 8.00. The “turbidity threshold (L, M, H) 7.4” value in data set [1] is listed as “M (moderate solubility if the threshold concentration is 31.3 μM to 250 μM)”. Moreover, the “turbidity threshold (L, M, H) 4.5” value in data set [1] is recorded as “M (moderate solubility if the threshold concentration is 31.3 μM to 250 μM)”. Also, the “turbidity threshold (L, M, H) 6.8” value in data set [1] was “M (moderate solubility if the threshold concentration is 31.3 μM to 250 μM)”. The “turbidity threshold (L, M, H) 1.4” value in data set [1] is given as “M (moderate solubility if the threshold concentration is 31.3 μM to 250 μM)”.
With `O=C(c1c(F)ccc(NS(=O)(=O)c2cc(F)ccc2F)c1F)c1c[nH]c2nccc(Cl)c12` [P-2018, N-[3-(4-Chloro-1H-pyrrolo[2,3-b]pyridine-3-carbonyl)-2,4-difluoro-phenyl]-2,5-difluoro-benzenesulfonamide], the pIC50 at CYP2C19 was below 5.00. Moreover, in data set [1], the “turbidity threshold (L, M, H) 7.4” value is “M (moderate solubility if the threshold concentration is 31.3 μM to 250 μM)”; the “turbidity threshold (L, M, H) 4.5” value is listed as “M (moderate solubility if the threshold concentration is 31.3 μM to 250 μM)”; the “turbidity threshold (L, M, H) 6.8” value is on record as “M (moderate solubility if the threshold concentration is 31.3 μM to 250 μM)”; the “turbidity threshold (L, M, H) 1.4” value is “L (low solubility if the threshold concentration is <31.3 04)”. The pIC50 against A-Raf is above 8.00. The pIC50 on CYP2C9 was below 5.00. In addition, the negative logarithm of the IC50 (pIC50) at B-Raf V600E was above 8.00.
Consider `O=C(c1c(F)ccc(NS(=O)(=O)c2cccc(F)c2)c1F)c1c[nH]c2nccc(Cl)c12` [P-2019, N-[3-(4-Chloro-1H-pyrrolo[2,3-b]pyridine-3-carbonyl)-2,4-difluoro-phenyl]-3-fluoro-benzenesulfonamide], for which the pIC50 at CYP2C19 is below 5.00. In data set [1], the “turbidity threshold (L, M, H) 7.4” value is recorded as “M (moderate solubility if the threshold concentration is 31.3 μM to 250 μM)”; the “turbidity threshold (L, M, H) 4.5” value is listed as “M (moderate solubility if the threshold concentration is 31.3 μM to 250 μM)”; the “turbidity threshold (L, M, H) 6.8” value was “M (moderate solubility if the threshold concentration is 31.3 μM to 250 μM)”; the “turbidity threshold (L, M, H) 1.4” value is recorded as “L (low solubility if the threshold concentration is <31.3 04)”. Besides, the pIC50 against A-Raf was above 8.00. The pIC50 on CYP2C9 is below 5.00. Further, the pIC50 at B-Raf V600E is above 8.00.
`CCCS(=O)(=O)Nc1ccc(F)c(C(=O)c2c[nH]c3ncc(-c4cnc(N5CCCC5)nc4)cc23)c1F` [P-2219, Propane-1-sulfonic acid {2,4-difluoro-3-[5-(2-pyrrolidin-1-yl-pyrimidin-5-yl)-1H-pyrrolo[2,3-b]pyridine-3-carbonyl]-phenyl}-amide]: the pIC50 is above 5.30 at CYP2C19, below 5.00 on CYP2C9, above 7.00 against c-Raf-1 and above 7.00 on B-Raf V600E. Also, the “turbidity threshold (L, M, H) 7.4” value in data set [1] is “L (low solubility if the threshold concentration is <31.3 04)”. Further, the “turbidity threshold (L, M, H) 4.5” value in data set [1] is “L (low solubility if the threshold concentration is <31.3 04)”. Also, in data set [1], the “turbidity threshold (L, M, H) 6.8” value was “L (low solubility if the threshold concentration is <31.3 04)”. Besides, in data set [1], the “turbidity threshold (L, M, H) 1.4” value is reported as “M (moderate solubility if the threshold concentration is 31.3 μM to 250 μM)”.
As for `CCCS(=O)(=O)Nc1ccc(F)c(C(=O)c2c[nH]c3ncc(-c4ccc(C#CCN(CC)CC)nc4)cc23)c1F` [P-2222, Propane-1-sulfonic acid (3-{5-[6-(3-diethylamino-prop-1-ynyl)-pyridin-3-yl]-1H-pyrrolo[2,3-b]pyridine-3-carbonyl}-2,4-difluoro-phenyl)-amide], the pIC50 on CYP2C19 is above 5.30. Also, in data set [1], the “turbidity threshold (L, M, H) 7.4” value was “L (low solubility if the threshold concentration is <31.3 04)”; the “turbidity threshold (L, M, H) 4.5” value is reported as “L (low solubility if the threshold concentration is <31.3 04)”; the “turbidity threshold (L, M, H) 6.8” value was “L (low solubility if the threshold concentration is <31.3 04)”; the “turbidity threshold (L, M, H) 1.4” value was “L (low solubility if the threshold concentration is <31.3 04)”. The pIC50 on CYP2C9 was 5.00 to 5.30. Moreover, at c-Raf-1, the pIC50 was above 8.00. The pIC50 at B-Raf V600E is above 8.00.
For the compound `CCCS(=O)(=O)Nc1ccc(F)c(C(=O)c2c[nH]c3ncc(-c4ccc(CCCOC)nc4)cc23)c1F` [P-2226, Propane-1-sulfonic acid (2,4-difluoro-3-{5-[6-(3-methoxy-propyl)-pyridin-3-yl]-1H-pyrrolo[2,3-b]pyridine-3-carbonyl}-phenyl)-amide], the pIC50 at CYP2C19 was below 5.00. For the same compound, in data set [1], the “turbidity threshold (L, M, H) 7.4” value was “L (low solubility if the threshold concentration is <31.3 04)”; the “turbidity threshold (L, M, H) 4.5” value was “L (low solubility if the threshold concentration is <31.3 04)”; the “turbidity threshold (L, M, H) 6.8” value is “L (low solubility if the threshold concentration is <31.3 04)”; the “turbidity threshold (L, M, H) 1.4” value was “H (high solubility if the threshold concentration is >250 μM)”. Besides, at CYP2C9, the pIC50 was above 5.30. Also, the pIC50 against c-Raf-1 is above 7.00. The same compound had a pIC50 at B-Raf V600E above 8.00.
